Entries after “also recorded” stand apart in the source; their conditions may differ. Read-outs that look alike come from different tables or passages of the source. Marks after values point to notes of the source that are not given here.
Legend:
[1] = Metabolic stability in liver microsomes; type: in vitro ADME; conditions: Rat
CYP 2D6 = CYP 2D6 (Homo sapiens, UniProt P10635); experiment: CYP inhibition in vitro; type: in vitro ADME
[2] = Metabolic stability in liver microsomes; type: in vitro ADME; conditions: Mouse
CYP 2C9 = CYP 2C9 (Homo sapiens, UniProt P11712); experiment: CYP inhibition in vitro; type: in vitro ADME
CYP 2C9, sequence (P11712 whole entry): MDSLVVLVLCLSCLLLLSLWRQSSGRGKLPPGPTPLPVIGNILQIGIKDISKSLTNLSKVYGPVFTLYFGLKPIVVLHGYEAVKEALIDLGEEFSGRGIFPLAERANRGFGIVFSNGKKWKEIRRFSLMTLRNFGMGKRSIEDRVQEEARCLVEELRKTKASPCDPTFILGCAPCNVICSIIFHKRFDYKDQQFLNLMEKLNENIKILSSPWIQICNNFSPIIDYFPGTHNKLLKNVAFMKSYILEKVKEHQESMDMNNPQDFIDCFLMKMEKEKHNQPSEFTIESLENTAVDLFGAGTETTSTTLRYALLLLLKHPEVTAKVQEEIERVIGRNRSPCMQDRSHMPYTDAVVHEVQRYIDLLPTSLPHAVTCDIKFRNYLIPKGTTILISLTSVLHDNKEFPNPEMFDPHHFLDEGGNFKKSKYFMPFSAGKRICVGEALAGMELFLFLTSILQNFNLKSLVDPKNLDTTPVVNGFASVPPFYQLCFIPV

CYP 2C8 = CYP 2C8 (Homo sapiens, UniProt P10632); experiment: CYP inhibition in vitro; type: in vitro ADME
CYP 2C8, sequence (P10632 whole entry): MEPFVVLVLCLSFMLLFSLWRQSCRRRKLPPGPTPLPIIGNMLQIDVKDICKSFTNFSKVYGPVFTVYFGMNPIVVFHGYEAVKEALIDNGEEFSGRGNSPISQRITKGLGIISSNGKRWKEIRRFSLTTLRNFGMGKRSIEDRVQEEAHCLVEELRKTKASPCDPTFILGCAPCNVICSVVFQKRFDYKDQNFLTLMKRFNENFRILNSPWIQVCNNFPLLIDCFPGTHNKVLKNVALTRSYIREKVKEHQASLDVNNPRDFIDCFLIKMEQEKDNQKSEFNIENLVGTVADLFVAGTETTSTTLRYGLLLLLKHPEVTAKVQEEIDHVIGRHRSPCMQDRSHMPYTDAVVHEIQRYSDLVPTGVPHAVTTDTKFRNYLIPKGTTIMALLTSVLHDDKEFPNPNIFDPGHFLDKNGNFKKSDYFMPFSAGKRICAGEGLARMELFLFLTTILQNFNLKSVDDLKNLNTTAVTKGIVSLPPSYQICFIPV

CYP 2B6 = CYP 2B6 (Homo sapiens, UniProt P20813); experiment: CYP inhibition in vitro; type: in vitro ADME
CYP 2B6, sequence (P20813 whole entry): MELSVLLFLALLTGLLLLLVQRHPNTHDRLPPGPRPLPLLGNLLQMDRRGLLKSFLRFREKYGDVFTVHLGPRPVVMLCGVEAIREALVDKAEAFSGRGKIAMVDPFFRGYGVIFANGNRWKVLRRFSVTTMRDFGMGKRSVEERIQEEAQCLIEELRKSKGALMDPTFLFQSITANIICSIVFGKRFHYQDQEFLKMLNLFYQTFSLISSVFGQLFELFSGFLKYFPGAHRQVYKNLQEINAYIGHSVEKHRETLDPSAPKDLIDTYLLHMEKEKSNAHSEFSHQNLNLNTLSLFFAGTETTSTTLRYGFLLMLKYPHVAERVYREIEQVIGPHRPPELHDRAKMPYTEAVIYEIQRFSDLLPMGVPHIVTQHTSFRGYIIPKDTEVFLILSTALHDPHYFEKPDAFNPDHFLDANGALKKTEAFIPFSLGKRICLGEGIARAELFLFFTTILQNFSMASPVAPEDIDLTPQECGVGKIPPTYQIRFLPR

NASH mouse model [3] = experiment: CCL4- and HFD-induced NASH mouse model; type: in vivo, C57BL/6J mice; conditions: data not shown; model group 5/9
NASH mouse model [4] = experiment: CCL4- and HFD-induced NASH mouse model; type: in vivo, C57BL/6J mice; conditions: CS17919 20 mg/kg
Procedure: 41 C57BL/6J mice, male, 6–8 weeks of age, were purchased from Chengdu Dossy Experimental Animal Co. (Chengdu, China), 9 of which were assigned in the control group and fed a chow diet. The other 32 mice were fed a HFD (D12429, Research diet, USA). After 8 weeks of feeding, these mice with HFD were subcutaneously injected with CCL4 (0.1 mL/kg) twice a week. These mice were then randomly subdivided into 4 groups according to serum ALT and AST at week 12: Model (n = 8), CS17919 (n = 8), CS27109 (n = 8), and Combination (n = 8). Both the control and model groups were given the solvent mentioned above, administered orally twice a day, while CS17919 was administered twice a day by gavage at a dose of 20 mg/kg and CS27109 was administered twice a day by gavage at a dose of 10 mg/kg for 4 weeks. The body weight of each mouse was measured every 3 days during the drug intervention. All animals were fasted overnight after the last drug administration and blood was collected to isolate serum for biochemical tests including AST, ALT, TG, TC, HDL‐c, and LDL‐c. The liver of each mouse was removed, the right lobe of which was fixed in 10% formalin solution for pathological study.
H&E staining was applied to determine scores for liver steatosis, ballooning and inflammation in the NASH model. Thin 4 μm paraffin sections of each sample were used to assess liver histology, following a standard protocol. Paraffin sections were deparaffinized and placed in Hematoxylin staining solution for 3–8 min before using tap water to elute excess Hematoxylin. Sections were stained in Eosin stain for about 1–3 min and rinsed with tap water. Finally, the slices were dehydrated and sealed. Score ranges were 0–3 for liver steatosis, 0–2 for ballooning and 0–12 for inflammation (which included scores of 0–3 for portal inflammation, 0–3 for lobular inflammation, 0–3 for piecemeal necrosis, and 0–3 for bridging necrosis).
Sirius Red staining was applied to determine liver fibrosis in the NASH model. Thin 4 μm paraffin sections of each sample were used in this study followed the standard procedure. Sections were first stained with Hematoxylin for 5–10 min, then washed and stained with Sirius Red stain about 15–30 min. Finally, the sections were rinsed and sealed. Image‐Pro Plus 6.0 was used for analyzing the area of liver fibrosis and the percentage of the fibrosis area in each section was calculated.

CYP 1A2 = CYP 1A2 (Homo sapiens, UniProt P05177)
CYP 1A2, sequence (P05177 whole entry): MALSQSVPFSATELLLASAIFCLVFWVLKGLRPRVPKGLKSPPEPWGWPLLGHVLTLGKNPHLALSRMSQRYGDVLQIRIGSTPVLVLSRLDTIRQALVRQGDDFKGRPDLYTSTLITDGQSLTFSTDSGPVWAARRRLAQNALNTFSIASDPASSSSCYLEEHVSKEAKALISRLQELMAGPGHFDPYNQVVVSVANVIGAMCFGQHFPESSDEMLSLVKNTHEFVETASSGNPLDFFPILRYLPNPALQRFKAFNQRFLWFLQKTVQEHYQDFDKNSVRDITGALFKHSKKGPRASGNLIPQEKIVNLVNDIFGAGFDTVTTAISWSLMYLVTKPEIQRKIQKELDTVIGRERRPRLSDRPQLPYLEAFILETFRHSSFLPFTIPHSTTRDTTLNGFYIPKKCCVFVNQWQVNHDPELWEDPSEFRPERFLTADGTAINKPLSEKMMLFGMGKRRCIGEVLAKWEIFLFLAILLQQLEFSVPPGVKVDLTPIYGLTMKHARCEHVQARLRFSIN

CYP 2C19 = CYP 2C19 (Homo sapiens, UniProt P33261); experiment: CYP inhibition in vitro; type: in vitro ADME
CYP 2C19, sequence (P33261 whole entry): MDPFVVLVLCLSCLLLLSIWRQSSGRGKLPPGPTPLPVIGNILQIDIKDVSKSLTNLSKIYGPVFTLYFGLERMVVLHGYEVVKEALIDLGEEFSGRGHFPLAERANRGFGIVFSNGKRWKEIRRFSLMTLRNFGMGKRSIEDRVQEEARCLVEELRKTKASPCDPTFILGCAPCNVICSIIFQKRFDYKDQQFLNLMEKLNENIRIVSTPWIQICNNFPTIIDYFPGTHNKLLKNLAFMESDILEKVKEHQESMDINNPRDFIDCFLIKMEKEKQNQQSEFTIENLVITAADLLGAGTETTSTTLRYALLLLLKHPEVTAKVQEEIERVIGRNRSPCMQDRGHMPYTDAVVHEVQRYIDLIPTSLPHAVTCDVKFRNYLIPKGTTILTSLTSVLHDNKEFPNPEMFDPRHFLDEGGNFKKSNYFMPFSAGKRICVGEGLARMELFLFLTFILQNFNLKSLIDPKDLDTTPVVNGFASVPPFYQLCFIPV

CYP3A4 [5] = molecular target: T1, CYP3A4 (Homo sapiens, UniProt P08684)
T1 sequence (P08684 whole entry): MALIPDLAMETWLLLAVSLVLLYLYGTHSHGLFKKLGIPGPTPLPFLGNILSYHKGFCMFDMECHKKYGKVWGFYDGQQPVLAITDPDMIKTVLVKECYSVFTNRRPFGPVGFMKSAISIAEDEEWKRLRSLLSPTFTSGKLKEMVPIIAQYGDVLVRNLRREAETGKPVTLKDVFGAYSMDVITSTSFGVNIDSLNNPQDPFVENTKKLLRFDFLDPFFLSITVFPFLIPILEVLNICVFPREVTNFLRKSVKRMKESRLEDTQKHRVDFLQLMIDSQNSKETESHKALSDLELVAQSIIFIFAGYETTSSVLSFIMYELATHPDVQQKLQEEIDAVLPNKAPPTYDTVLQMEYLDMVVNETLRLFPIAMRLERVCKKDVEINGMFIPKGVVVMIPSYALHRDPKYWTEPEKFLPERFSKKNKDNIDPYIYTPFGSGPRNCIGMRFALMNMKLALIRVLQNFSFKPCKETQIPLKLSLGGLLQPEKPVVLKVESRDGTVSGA

[6] = Metabolic stability in liver microsomes; type: in vitro ADME; conditions: Human
CYP3A4 [7] = molecular target: T1, CYP3A4; experiment: CYP inhibition in vitro; conditions: read-out: CYP3A4 (Midazolam) inhibition IC50; substrate Midazolam
diabetic kidney disease = tested on: diabetic kidney disease; design: method as in PMID 25531162; conditions: cited from earlier work
NASH [8] = tested on: NASH; design: method as in PMID 32147362; conditions: cited from earlier work
CCC‐HEL‐1 = experiment: MTS cytotoxicity assay, CCC-HEL-1; type: cell-based, human; conditions: 72 h
Procedure: (§1) Human embryonic kidney cells (HEK‐293A), human hepatocellular carcinoma cells (HUH7), human embryonic liver diploid cells (CCC‐HEL‐1) and human embryonic lung cells (MRC‐5) were selected for the cytotoxicity study of both drugs, using the MTS assay protocol. Cells were cultured at 37°C with 5% CO2 using an appropriate medium. […] After 72 h of incubation, 30 μL of MTS solution was added to each well, and the cells were then incubated for 2–4 h in the dark. The absorbance value of each well at 490 nm was measured using an enzymatic plate reader and the IC50 for each drug and each cell line was calculated. Cell viability and cytoxicity experiments were repeated three times.

UUO mouse model = UUO mouse model of kidney injury and fibrosis; type: in vivo, C57BL/6J mice; conditions: CS17919 10 and 60 mg/kg, GS-4997 30 mg/kg, gavage twice daily, 11 days
Procedure: 55 C57BL/6J mice, male, 6–8 weeks old were purchased from Chengdu Pharmachem Biotechnology Co. (Chengdu, China) and randomly divided into 5 groups according to their body weight: Sham (n = 10), Model (n = 15), CS17919L (10 mg/kg, n = 10), CS17919H (60 mg/kg, n = 10), and GS‐4997 (30 mg/kg, n = 10). The mice were anesthetized and fixed on the operating table, and the abdominal cortex and muscles were cut in the middle of the right side of the abdomen, and the ureter was searched for along the renal hilum. The ureter was separated using a glass split‐needle and ligated at the opening of the renal pelvis and the upper 1/3 of the ureter, and the ureter was cut between the two ligatures. Finally, the muscle and skin were closed with consecutive sutures, and animals were kept under observation until they awoke. Both the Sham and the Model group received solvent (0.2% CMC‐Na + 0.1% Tween‐80) orally twice daily. CS17919 and GS‐4997 were administered by gavage twice daily at the corresponding doses for 11 days. All treatments were started one day before surgical operation. All mice were sacrificed one day after administration with overnight fasting. Blood was collected, and serum was isolated for the analysis of urea nitrogen and creatinine. The kidney of each mouse was removed, weighed and fixed in 10% formalin solution for pathological study.
Masson staining was applied to determine kidney fibrosis in the UUO model. Thin 4 μm paraffin sections of each sample were used in this study, which followed the standard procedure. The sections were stained with Hematoxylin staining solution for 5–10 min and then washed, followed by staining with Ponceau S‐acid fuchsin stain for around 5–10 min. The sections were treated with 1% phosphomolybdic acid and Aniline Blue solution, and finally dehydrated stepwise in alcohol and sealed. VIS7.0 software was used to analyze the area of kidney fibrosis and the percentage of the fibrosis area in the scanning area was calculated.

L02 cells = experiment: Cell protection in PA-stimulated L02 cells (Cell Titer-Glo viability); type: cell-based, human; conditions: 50 μmol/L PA, 72 h
Procedure: L02 cells were cultured in DMEM medium (Gibco, 11 965 092, Carlsbad, CA, USA) supplemented with 20% FBS and 1× penicillin–streptomycin. L02 cells were inoculated in two 96‐well plates at 1E4 cells/well (200 μL). The following day, the cells were stimulated with 50 μmol/L PA (dissolved in ethanol to make a 200× stock solution and then added to the medium) and simultaneously incubated with different concentrations of CS17919 and GS‐4997 (CS17919 and GS‐4997 stock solutions were added to the well plates to reach a final concentration of 10–0.3 μmol/L). After 72 h of incubation, the original medium was removed, followed by the addition of 100 μL of new DMEM medium and 60 μL of Cell Titer‐Glo reagent per well. The cells were incubated for 5 min in the dark, and then transferred to a black permeable plate for detection using an enzyme plate reader (Tecan spark, Grödig, Austria).

MRC‐5 = experiment: MTS cytotoxicity assay, MRC-5; type: cell-based, human; conditions: 72 h
Procedure: as §1

[9] = tested on: 5/6 nephrectomy (5/6 Nx) rat model; design: method as in PMID 35919527; conditions: GS-4997 alone; cited from earlier work
DKD = tested on: DKD; design: method as in PMID 30526503, PMID 26180085, PMID 30024858; conditions: cited from earlier work
UUO model = tested on: UUO model; design: method as in PMID 37310976; conditions: cited from earlier work
NASH [10] = tested on: NASH; design: method as in PMID 28218919, PMID 31996485; conditions: cited from earlier work
[11] = 4 weeks, CS27109 10 mg/kg twice a day
[12] = serum after 4 weeks, CS27109 10 mg/kg, gavage twice a day, mean ± SD

CYP 2D6, sequence (P10635 whole entry): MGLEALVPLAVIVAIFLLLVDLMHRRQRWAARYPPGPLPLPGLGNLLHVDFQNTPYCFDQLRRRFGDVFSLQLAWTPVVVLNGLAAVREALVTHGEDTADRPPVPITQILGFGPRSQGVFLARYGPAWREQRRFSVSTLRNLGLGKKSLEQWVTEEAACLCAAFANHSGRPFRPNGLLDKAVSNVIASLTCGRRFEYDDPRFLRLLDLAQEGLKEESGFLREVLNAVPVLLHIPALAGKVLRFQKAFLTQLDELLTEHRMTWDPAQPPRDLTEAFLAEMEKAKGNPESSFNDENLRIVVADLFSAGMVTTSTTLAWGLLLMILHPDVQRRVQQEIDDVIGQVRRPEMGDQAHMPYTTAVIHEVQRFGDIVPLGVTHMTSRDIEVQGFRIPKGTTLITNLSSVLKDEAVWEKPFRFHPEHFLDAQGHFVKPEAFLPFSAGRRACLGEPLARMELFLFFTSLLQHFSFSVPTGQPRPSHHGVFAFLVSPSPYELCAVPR

Which results are given for `N#Cc1nn(-c2cc(Br)c(Oc3n[nH]c(=O)c4ccccc34)c(Br)c2)c(=O)[nH]c1=O` [CS27109]?
Clint in liver microsomes [1]: 4.24 mL/min/kg; T1/2 in liver microsomes [1]: >120 min; IC50 (CYP 2D6): > 10 µM; Clint in liver microsomes [2]: 7.72 mL/min/kg; T1/2 in liver microsomes [2]: >120 min; IC50 (CYP 2C9): 5.1 µM; IC50 (CYP 2C8): > 10 µM; IC50 (CYP 2B6): > 10 µM; Occurrence of hepatocellular carcinoma (mice affected/group) (NASH mouse model [3]): 2/8; Liver fibrosis area (Sirius Red staining) (NASH mouse model [4]; [11]): improving all pathologic features of NASH; Liver inflammation score (H&E) (NASH mouse model [4]; [11]): improving all pathologic features of NASH; Liver steatosis and ballooning scores (H&E) (NASH mouse model [4]; [11]): improving all pathologic features of NASH; ALT (NASH mouse model [4]; [12]): 68.7 ± 18.8^c U/L; AST (NASH mouse model [4]; [12]): 113.0 ± 36.2^a U/L; HDL‐C (NASH mouse model [4]; [12]): 0.665 ± 0.284 mmol/L; LDL‐C (NASH mouse model [4]; [12]): 0.040 ± 0.026^b mmol/L; TC (NASH mouse model [4]; [12]): 0.785 ± 0.277 mmol/L; TG (NASH mouse model [4]; [12]): 0.329 ± 0.341 mmol/L; IC50 (CYP 1A2): > 10 µM; IC50 (CYP 2C19): > 10 µM; IC50 (CYP3A4 [5]): > 10 µM; Clint in liver microsomes [6]: 0.83 mL/min/kg; T1/2 in liver microsomes [6]: >120 min; IC50 (CYP3A4 [7]): > 10 µM

Which “Outcome of DKD clinical trial” value (diabetic kidney disease) does the source give for `Cc1cc(F)c(C(=O)Nc2cccc(-c3nncn3C(C)C)n2)cc1-n1cnc(C2CC2)c1` [GS‐4997, Selonsertib, reference compound] here?
The value was “did not meet its primary endpoint”.

And the “Outcome of phase III NASH trial” value (NASH [8])?
Its value is “failed”.

And the “Cytotoxicity (cell viability)” value (CCC‐HEL‐1)?
Its value is “reduced cell viability at higher doses”.

And the “Area of kidney fibrosis (Masson staining)” value (UUO mouse model)?
The value was “tendency to reduce”.

What about the “Serum creatinine vs model group” value (UUO mouse model) of the same compound?
The value was “non‐significant tendency to decrease”.

What about the “Serum urea nitrogen vs model group” value (UUO mouse model) of the same compound?
The value was “significantly reduced”.

And the “Cell protection (cell viability normalized to PA-treated cells)” value (L02 cells; 0.32–10 μmol/L drug)?
The value was “only protected against cell death at lower doses”.

What about the “Cell viability at high drug doses” value (L02 cells; 5 and 10 μmol/L drug) of the same compound?
The value was “reduced cell viability in a dose‐dependent manner”.

And the “Cytotoxicity (cell viability)” value (MRC‐5)?
Its value is “reduced cell viability at higher doses; also recorded: high‐dose cytotoxicity”.

And the “CKD-related characteristics and kidney function” value [9]?
Its value is “barely improved CKD‐related characteristics, but preserved kidney function”.

Which Glomerular sclerosis progression (DKD) does the source give for `O=C(Nc1cccc(-c2nncn2C2CC2)c1)c1cc(-n2cnc(C3CC3)c2)ccn1` [GS‐444217] here?
Its Glomerular sclerosis progression is “halt the progression of glomerular sclerosis”.

And the Kidney fibrosis (UUO model)?
The Kidney fibrosis was “attenuate kidney fibrosis”.

And the NASH symptoms (NASH [10])?
Its NASH symptoms is “significantly ameliorated NASH symptoms”.

Reference: article PMC11798738, “Targeting ASK1 by CS17919 alleviates kidney‐ and liver‐related diseases in murine models” (Animal Models and Experimental Medicine, 2024)
